“Also recorded” adds a separate entry of the source. Like-named read-outs stand apart in the source and are kept apart here.
Test system: rat UUO model of acute kidney injury and chronic kidney disease
Type: in vivo
Source text: Composite data represents the average of 3 anatomically distinct depths (10 images/depth/rat/group=˜60-65% of renal cortical area).

[1] = rat serum, Day 7 post UUO, all groups, dose dependent, relative to the positive control group

Compound	UUO-induced increases in renal cortical CVF (reference compound, dose not given)	IL-6 (marker of inflammation) (UUO model)	fibrosis (collagen volume fraction, total collagen deposition via PicoSirius Red) (daily administration, dose dependent, relative to the positive control group)	UUO-induced increases in renal cortical CVF (dosed at 0.3 mg/kg)	UUO-induced increases in renal cortical CVF (dosed at 0.9 mg/kg)	IL-1β (marker of inflammation) (rat serum, Day 7 post UUO)	IL-18 (marker of inflammation) (rat serum, Day 7 post UUO)	circulating anti-inflammatory interleukin-10 (IL-10) [1]	circulating hepcidin [1]	circulating neutrophil gelatinase-associated lipocalin (NGAL) [1]	circulating transforming growth factor-β (TGF-β) (rat serum, Day 7 post UUO, daily administration, dose dependent, relative to the positive control group)
Cc1cccc(-c2[nH]c(C(C)(C)C)nc2-c2ccc3nccnc3c2)n1 [SB-525334, reference compound]	attenuated										
phosphorylated hexaacyl disaccharide [REVTx-300]		no increase	significant reduction; also recorded: Dose-dependent reduction	attenuated	attenuated	relatively minor increase	relatively minor increase	significantly increased	significantly increased	significantly increased	significant reduction
